Test results published in ChEMBL document CHEMBL3430912, “GSK Tres Cantos Anti-Kinetoplastid Screening (TCAKS) Data”.

Legend:
[1] = system: Trypanosoma cruzi; test: (§1) GSK_TCAKS: pIC50 Trypanosoma cruzi Imaging: Infected Cells. […] Cells were then washed once with PBS before infection. T. cruzi trypomastigotes, collected at days 5 to 8 after infection from LLC-MK2 parasite infected cultures, were allowed to swim out for 4h at 37C from a centrifuged pellet (2,500 rpm/10 min/room temperature). Trypomastigotes were then collected and counted in a CASY Cell Counter. Trypomastigotes, in supplemented DMEM, were added to H9c2 cultures in a multiplicity of infection of 1 and incubated for 18 h. Cells were washed once with PBS before incubation of the infected H9c2 monolayer with trypsin (Life-Technologies) to detach cells from the flask. Cells were counted in a CASY Cell Counter using a 150 um capillary and their density set at 5 * 10^4 cells per mL in supplemented assay DMEM. Infected H9c2 were dispensed into 384-well poly-lysine coated assay plates at 50uL per well using a Multidrop Combi dispenser. After seeding them, the plates were incubated at 37C, 5% CO2 for 72h. Cultures were then fixed and stained by addition of 50 uL of a solution containing 8% formaldehyde and 4 uM DRAQ5 DNA dye (BioStatus, UK) per well. […] Five images were collected per well for reliable statistical analysis. Automated image analysis was performed with a script developed on Acapella High Content Imaging and Analysis Software (PerkinElmer). Output: percentage of infected cells per well as a second infection marker.; format: functional, organism-based, Rattus norvegicus; settings: H9c2, 4 h
[2] = system: Trypanosoma brucei brucei; test: GSK_TCAKS: pIC50 Trypanosoma brucei viability assay using fluorescence intensity. Assay plates (1536-well) were prepared by dispensing 25nL of compound solution per well using an Echo acoustic dispenser (Labcyte).; format: functional, organism-based; settings: Lister 427, 2 h
[3] = system: Trypanosoma brucei brucei; test: GSK_TCAKS: pIC50 Trypanosoma brucei viability assay using luminiscence. Assay plates (1536-well) were prepared. T. brucei cultures were harvested and counted in a CASY cell counter. A parasite suspension was prepared at a final concentration of 5 * 10^4 cells/mL in complete HMI9 medium and 6uL was dispensed to all wells containing compounds using a Multidrop Combi dispenser. 6uL of HMI9 media with 0.4% DMSO were dispensed to control columns. Plates were incubated for 24 h at 37C, 5% CO2 then tempered for 10 min at room temperature. ATP content was quantified by adding 4 uL of CellTiter-Glo Reagent (Promega) according to the manufacturer's instructions. Luminescence was measured using a ViewLux.; format: functional, organism-based; settings: Lister 427, CASY
[4] = system: Trypanosoma cruzi; test: GSK_TCAKS: pIC50 Trypanosoma cruzi viability assay using beta-GAL activity. This assay was run at single shot at 5uM compound concentration per well. The biological reagents consisted of NIH-3T3 host cells and trypomastigotes parasitic cells; both cell types were set to a 3.3 * 10^5 cells/mL dilution in assay DMEM by means of a CASY cell counter device using a 60um capillary. 6 uL of the mixture were dispensed per well (about 1 * 10^3 host-cells and 1 * 10^3 parasites) with a Multidrop Combi dispenser. […] In all wells, the percentage of DMSO never exceeded 0.5%. Plates incubated for four days at 37C, 5% CO2. The substrate used for the assay fluorescence intensity (FLINT) readout was resorufin-beta-D-galactopiranoside (Sigma-Aldrich) at 5uM per well. It was diluted in PBS supplemented with the soft detergent Igepal (Fluka).; format: functional, organism-based, Mus musculus; settings: Tulahuen, NIH3T3
[5] = GSK_TCAKS: pIC50 HepG2 human cell line viability assay using luminiscence. […] Seeding density was checked to ensure that new mono-layers were not more than 50% confluent at the time of harvesting. Cell suspension was added to 500 mL of the same medium at a final density of 1.2 * 10^5 cells/mL. This cell suspension was dispensed (25 uL, 3000 cells per well) into 384-well clear-bottom plates using a Multidrop Combi dispenser. Prior to addition of the cell suspension, the screening compounds (250 nL) were pre-dispensed into the plates with an Echo liquid handler. Plates were incubated for 48 h at 37C, 5% CO2. After incubation, plates equilibrated at room temperature for 30 min before proceeding to develop the luminescent signal. The signal developer, CellTiter-Glo Reagent, was allowed to equilibrate at room temperature for 30 min and added to the plates (25uL per well) using a Multidrop Combi dispenser. Plates were left for 10 min at room temperature for stabilization and then read using a ViewLux.; format: toxicity, cell-based
[6] = system: Leishmania donovani; test: (§2) GSK_TCAKS: pIC50 Leishmania donovani Imaging: THP-1 Host Macrophages. Assay plates (384-well) were prepared by adding 250nL of compound to each well. For single shot assay, the final compound concentration was 5 uM. […] Automated image analysis was performed with a script developed on Acapella High Content Imaging and Analysis Software (PerkinElmer). Output: THP-1 cell count were reported for each well.; format: functional, organism-based, Homo sapiens
[7] = molecular target: Sterol 14-alpha demethylase (Trypanosoma cruzi (strain CL Brener), UniProt Q7Z1V1); test: GSK_TCAKS: pIC50 CYP51 from Trypanosoma cruzi.; format: functional
[8] = system: Trypanosoma cruzi; test: GSK_TCAKS: pIC50 Trypanosoma cruzi Imaging: Amastigotes/Cell. […] Cells were then washed once with PBS before infection. T. cruzi trypomastigotes, collected at days 5 to 8 after infection from LLC-MK2 parasite infected cultures, were allowed to swim out for 4h at 37C from a centrifuged pellet (2,500 rpm/10 min/room temperature). Trypomastigotes were then collected and counted in a CASY Cell Counter. Trypomastigotes, in supplemented DMEM, were added to H9c2 cultures in a multiplicity of infection of 1 and incubated for 18 h. Cells were washed once with PBS before incubation of the infected H9c2 monolayer with trypsin (Life-Technologies) to detach cells from the flask. Cells were counted in a CASY Cell Counter using a 150 um capillary and their density set at 5 * 10^4 cells per mL in supplemented assay DMEM. Infected H9c2 were dispensed into 384-well poly-lysine coated assay plates at 50uL per well using a Multidrop Combi dispenser. After seeding them, the plates were incubated at 37C, 5% CO2 for 72h. Cultures were then fixed and stained by addition of 50 uL of a solution containing 8% formaldehyde and 4 uM DRAQ5 DNA dye (BioStatus, UK) per well. […] Five images were collected per well for reliable statistical analysis. Automated image analysis was performed with a script developed on Acapella High Content Imaging and Analysis Software (PerkinElmer). Output: number of amastigotes per cell as infection level measurement.; format: functional, organism-based, Rattus norvegicus; settings: H9c2, 4 h
[9] = system: Leishmania donovani; test: GSK_TCAKS: pIC50 Leishmania donovani viability assay using fluorescence intensity. Assay plates (1536-well) were prepared by adding 30nL per well of compound. For single shot assay, the final compound concentration was 5uM. […] Briefly, eGFP LdBOB axenic amastigotes were harvested, fixed and counted in a CASY cell counter (Roche-Applied Science). A final concentration of 1.5 * 10^5 cells per well were prepared in amastigote media containing 500 U/mL penicillin/streptomycin (Invitrogen) and 6uL was dispensed to each experimental well using a Multidrop Combi dispenser (Thermo Scientific). 6uL of assay media was dispensed to control columns used as reference for 100% compound response. Following incubation for 72 h at 37C, 5% CO2, 2 uL of resazurin was added to each well at a final concentration of 0.5 mM in phosphate buffered saline (PBS) with IGEPAL (Sigma-Aldrich), 0.05% (v/v).; format: functional, organism-based
[10] = system: NIH3T3; test: GSK_TCAKS: pIC50 NIH 3T3 cell line viability assay using luminiscence. Tissue culture surface treated assay plates (1536-well) were used. […] The 100% cells survival control was determined exposing the host-cells to a 0.5% DMSO concentration, whereas the 100% toxicity control was achieved by seeding the cells in presence of Amphotericin B at 50uM. Plates were incubated for four days at 37C, 5% CO2. The assay readout was developed by addition of 5uL of CellTiter-Glo Reagent following the manufacturer's instructions. Luminiscence was measured using a ViewLux.; format: functional, cell-based; settings: Mus musculus, NIH3T3, 96 h
[11] = system: Trypanosoma cruzi; test: as §1, with “H2C9” for “Trypanosoma cruzi”, “H9c2 Host Cardiomyocytes.” for “Infected Cells.”, “Number” for “percentage”, “H9c2 Host Cardiomyocytes nuclei to determine drug-related cytotoxicity.” for “infected cells per well as a second infection marker.”; format: functional, organism-based, Rattus norvegicus; settings: H9c2, 4 h
[12] = system: Leishmania donovani; test: as §2, with “Amastigotes/Macrophages.” for “THP-1 Host Macrophages.”, “Average number of amastigotes per macrophage” for “THP-1”, “cell” for “cell count”; format: functional, organism-based, Homo sapiens; settings: THP-1
[13] = system: Leishmania donovani; test: as §2, with “Infected” for “THP-1 Host”, “Percent of infected macrophage cells” for “THP-1 cell count”; format: functional, organism-based, Homo sapiens; settings: THP-1

Chain of Sterol 14-alpha demethylase (Q7Z1V1 whole entry): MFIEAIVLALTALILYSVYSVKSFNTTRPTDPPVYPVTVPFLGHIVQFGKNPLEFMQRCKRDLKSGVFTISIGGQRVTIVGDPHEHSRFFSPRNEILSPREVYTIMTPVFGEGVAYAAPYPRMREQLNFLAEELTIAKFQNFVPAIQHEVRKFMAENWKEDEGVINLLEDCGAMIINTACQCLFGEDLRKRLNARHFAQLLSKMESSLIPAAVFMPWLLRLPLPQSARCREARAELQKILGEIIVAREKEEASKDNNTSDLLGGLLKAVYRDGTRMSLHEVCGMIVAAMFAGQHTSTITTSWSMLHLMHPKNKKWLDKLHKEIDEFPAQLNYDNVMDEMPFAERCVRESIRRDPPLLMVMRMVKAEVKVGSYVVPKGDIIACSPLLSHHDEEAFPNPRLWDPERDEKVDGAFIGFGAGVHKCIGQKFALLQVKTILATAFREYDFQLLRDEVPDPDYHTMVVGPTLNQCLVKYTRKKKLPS

Row | Compound | IC50 [1] [µM] | IC50 [2] [µM] | IC50 [3] [µM] | IC50 [4] [µM] | IC50 at 48 h [5] [µM] | IC50 [6] [µM] | IC50 [7] [µM] | IC50 [8] [µM] | IC50 [9] [µM] | IC50 [10] [µM] | IC50 [11] [µM] | IC50 [12] [µM] | IC50 [13] [µM]
1 | Cc1c(C(C)NC(=O)Nc2cccc(Cl)c2)sc2ncnn12 (stereo not drawn) | 0.2 | 20 | > 39.8 | 0.141 | > 100 | > 50.1 | 0.126 | 0.158 | 2 | > 50.1 | > 50.1 | 2 | > 50.1
2 | O=C(c1cccc(Cl)c1Cl)N1CCn2c1nc(-c1ccncc1)cc2=O | 0.316 | 15.8 | 31.6 | 0.178 | > 100 | > 50.1 | 0.0631 | 0.316 | 50.1 | 20 | > 50.1 | 31.6 | > 50.1
3 | CS(=O)(=O)c1cccc(-c2cnc(N)c3c(-c4ccc(CO)cc4)csc23)c1 | 0.631 | 2 | 5.01 | 0.794 | > 100 | > 50.1 | 3.16 | 0.316 | 39.8 | 25.1 | > 50.1 | 7.94 | 10
4 | O=C(NCCc1ccccn1)C(c1cn[nH]c1)N1CCN(c2ccc(Cl)c(Cl)c2)CC1 (stereo not drawn) | 0.158 | 12.6 | > 39.8 | 0.1 | > 100 | > 50.1 | 0.126 | 0.126 | 2.51 | 31.6 | > 50.1 | 20 | > 50.1
5 | COc1ccc(-c2ccc3nnc(-c4ccc(O)c(OC)c4)n3c2)cn1 | 3.16 | 2 | 2.51 | 1.26 | > 100 | > 50.1 | > 100 | 2 | 3.98 | 50.1 | > 50.1 | > 50.1 | > 50.1
6 | COc1cc(-c2nc(N3CCOCC3)sc2-c2ccnc(NC3CCOCC3)n2)ccc1Cl | 0.158 | 15.8 | > 39.8 | 0.251 | > 100 | > 50.1 | > 100 | 0.1 | > 50.1 | > 50.1 | > 50.1 | 0.02 | > 50.1
7 | CN(C)c1ncc(-c2cncn2CCOc2ccc(Cl)cc2)cn1 | 0.251 | > 39.8 | > 39.8 | 0.224 | > 100 | > 50.1 | 0.0501 | 0.2 | > 50.1 | 39.8 | > 50.1 | > 50.1 | > 50.1
8 | CCC(c1ccc(F)cc1)n1cncc1-c1cnn(C)c1 (stereo not drawn) | 0.316 | > 39.8 | > 39.8 | 0.2 | > 100 | > 50.1 | 0.0794 | 0.316 | > 50.1 | 25.1 | > 50.1 | > 50.1 | > 50.1
9 | O=C(Nc1ncc([N+](=O)[O-])s1)C1CC1 | 1 | 7.94 | 39.8 | 0.398 | > 100 | > 50.1 | > 100 | 0.398 | 39.8 | 31.6 | > 50.1 | > 50.1 | > 50.1
10 | CC(=Cc1ccccc1)CN1CCC(=O)N(Cc2cccnc2)CC1 | 0.501 | > 39.8 | > 39.8 | 0.251 | > 100 | 39.8 | 0.1 | 0.501 | > 50.1 | > 50.1 | > 50.1 | 31.6 | > 50.1
11 | CN1CCN(c2nc(-c3ccc(Cl)cc3)c3c(N)n(C)nc3n2)CC1 | 1 | 12.6 | 31.6 | 2 | 79.4 | 39.8 | > 100 | 0.794 | > 50.1 | 25.1 | 25.1 | 31.6 | 39.8
12 | COc1ccc(C)cc1-c1csc(NC(=O)C(C)n2ccnc2)n1 (stereo not drawn) | 0.1 | 25.1 | > 39.8 | 0.0708 | > 100 | > 50.1 | 0.0398 | 0.1 | 3.16 | 50.1 | > 50.1 | > 50.1 | > 50.1
13 | CC(C)Oc1cccc(N2CCC(C(=O)N3CCCN(C(C)C)CC3)CC2)c1 | 0.631 | > 39.8 | > 39.8 | 1.26 | > 100 | > 50.1 | > 100 | 0.251 | > 50.1 | 31.6 | > 50.1 | > 50.1 | > 50.1
14 | CCN(Cc1ccncc1)Cc1ccc(NC(=O)c2cc(-c3ccc(F)cc3)n[nH]2)cc1 | 0.251 | > 39.8 | > 39.8 | 0.398 | > 100 | 5.01 | 0.0794 | 0.251 | 15.8 | 10 | > 50.1 | 2.51 | > 50.1
15 | COc1cccc(CCNC(=O)C(c2cn[nH]c2)N2CCN(c3ccc(Cl)cc3)CC2)c1 (stereo not drawn) | 0.02 | 20 | 31.6 | 0.02 | 50.1 | 25.1 | 0.0631 | 0.0158 | 12.6 | 31.6 | 39.8 | 10 | 20
16 | COc1ccc2nc(N(Cc3cccnc3)C(=O)C3CCC3)sc2c1 | 0.126 | 20 | 39.8 | 0.126 | > 100 | > 50.1 | 0.0631 | 0.1 | 12.6 | 50.1 | > 50.1 | 50.1 | > 50.1
